Source: ChEMBL document CHEMBL4052670, “The selective cytotoxicity of new triazene compounds to human melanoma cells” (Bioorg Med Chem, 2017)

Legend:
[1] = Half life in deuterated phosphate buffer at pH 7.8 by 1H-NMR spectra analysis; assay type: physicochemical
[2] = Prodrug activation assessed as mushroom tyrosinase-mediated compound hydrolysis by measuring half life in presence of 100 U/ml of tyrosinase by HPLC analysis; conditions: agaricus bisporus
[3] = Prodrug activation assessed as mushroom tyrosinase-mediated compound hydrolysis by measuring Pseudo first-order rate constants in presence of 100 U/ml of tyrosinase by HPLC analysis; conditions: agaricus bisporus
[4] = Stability of the compound in phosphate buffered saline at pH 7.4 assessed as parent compound remaining measured after 8 days by HPLC analysis; assay type: physicochemical; conditions: read-out: Stability
[5] = Apparent partition coefficient, log P of the compound in 1-octanol/phosphate buffer at pH 7.4 measured after 30 mins by HPLC analysis; assay type: physicochemical; conditions: read-out: LogD7.4
[6] = Half life in 80% human plasma by HPLC analysis; assay type: ADME, cell-free
[7] = Cytotoxicity against human MNT1 cells after 72 hrs by MTS assay; assay type: functional, cell-based; conditions: MNT-1, 72 h
[8] = system: B16-F10; assay: Cytotoxicity against mouse B16F10 cells after 72 hrs by MTS assay; assay type: functional, cell-based; conditions: B16-F10, 72 h
[9] = system: HaCaT; assay: Cytotoxicity against human HaCaT cells after 72 hrs by MTS assay; assay type: cell-based
[10] = Half life in phosphate buffered saline at pH 7.4 by HPLC analysis; assay type: physicochemical
[11] = Prodrug activation assessed as mushroom tyrosinase-mediated compound hydrolysis by measuring Pseudo first-order rate constants in presence of 300 U/ml of tyrosinase by HPLC analysis; conditions: agaricus bisporus
[12] = Retention time of the compound in phosphate buffered saline at pH 7.4 by HPLC method
[13] = target: T1, mushroom tyrosinase (Agaricus bisporus, UniProt C7FF04+C7FF05+O42713+Q00024); assay: Drug metabolism assessed as mushroom tyrosinase-mediated compound consumption in presence of 300 U/ml of tyrosinase by HPLC method; assay type: ADME; conditions: read-out: Drug metabolism
[14] = target: T2, Mushroom tyrosinase (Agaricus bisporus, UniProt O42713+Q00024+C7FF04+C7FF05); assay: Drug metabolism assessed as mushroom tyrosinase-mediated compound hydrolysis by measuring retention time by HPLC method; assay type: ADME
[15] = Prodrug activation assessed as mushroom tyrosinase-mediated compound hydrolysis by measuring half life in presence of 300 U/ml of tyrosinase by HPLC analysis; conditions: agaricus bisporus
[16] = system: NCCc1ccc(O)c(O)c1; assay: (§1) Substrate activity at mushroom tyrosinase monophenolase activity by spectrophotometry based Michaelis-Menten plot analysis; conditions: Agaricus bisporus
[17] = system: N[C@@H](Cc1ccc(O)cc1)C(=O)O; assay: as §1; conditions: Agaricus bisporus
[18] = system: O=C(O)Cc1ccc(O)cc1; assay: as §1; conditions: Agaricus bisporus
[19] = target: T2, Mushroom tyrosinase; assay: (§2) Drug metabolism assessed as mushroom tyrosinase-mediated compound oxidation by Michaelis-Menten plot analysis; assay type: ADME
[20] = target: T1, mushroom tyrosinase; assay: as §2; assay type: ADME; conditions: mushroom tyrosinase
[21] = target: T2, Mushroom tyrosinase; assay: Ratio of Kcat to Km for mushroom tyrosinase-mediated compound oxidation; assay type: ADME
[22] = target: T1, mushroom tyrosinase; assay: Drug metabolism assessed as mushroom tyrosinase-mediated compound consumption in presence of 100 U/ml of tyrosinase by HPLC method; assay type: ADME; conditions: read-out: Drug metabolism
[23] = system: Plasma; assay: Retention time of the compound in 80% human plasma by HPLC method; assay type: ADME, cell-free

Mushroom tyrosinase (Agaricus bisporus), sequence (C7FF05 whole entry, looked up): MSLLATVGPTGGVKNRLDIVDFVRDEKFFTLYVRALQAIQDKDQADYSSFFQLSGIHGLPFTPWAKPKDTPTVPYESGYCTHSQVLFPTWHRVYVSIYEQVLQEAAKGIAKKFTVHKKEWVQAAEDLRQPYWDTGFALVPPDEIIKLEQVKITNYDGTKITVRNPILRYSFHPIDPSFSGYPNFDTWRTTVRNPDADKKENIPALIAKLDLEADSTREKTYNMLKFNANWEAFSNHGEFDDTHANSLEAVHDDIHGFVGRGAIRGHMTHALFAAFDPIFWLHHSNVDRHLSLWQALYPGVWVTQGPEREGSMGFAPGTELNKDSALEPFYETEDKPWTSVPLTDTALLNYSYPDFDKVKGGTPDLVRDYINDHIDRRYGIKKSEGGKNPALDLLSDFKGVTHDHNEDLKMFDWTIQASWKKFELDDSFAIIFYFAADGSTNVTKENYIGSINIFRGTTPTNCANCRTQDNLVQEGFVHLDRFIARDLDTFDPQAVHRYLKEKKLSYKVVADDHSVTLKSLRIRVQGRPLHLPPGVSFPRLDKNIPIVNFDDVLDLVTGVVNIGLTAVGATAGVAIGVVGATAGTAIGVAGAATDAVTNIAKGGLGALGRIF
Mushroom tyrosinase (Agaricus bisporus), sequence (C7FF04 whole entry, looked up): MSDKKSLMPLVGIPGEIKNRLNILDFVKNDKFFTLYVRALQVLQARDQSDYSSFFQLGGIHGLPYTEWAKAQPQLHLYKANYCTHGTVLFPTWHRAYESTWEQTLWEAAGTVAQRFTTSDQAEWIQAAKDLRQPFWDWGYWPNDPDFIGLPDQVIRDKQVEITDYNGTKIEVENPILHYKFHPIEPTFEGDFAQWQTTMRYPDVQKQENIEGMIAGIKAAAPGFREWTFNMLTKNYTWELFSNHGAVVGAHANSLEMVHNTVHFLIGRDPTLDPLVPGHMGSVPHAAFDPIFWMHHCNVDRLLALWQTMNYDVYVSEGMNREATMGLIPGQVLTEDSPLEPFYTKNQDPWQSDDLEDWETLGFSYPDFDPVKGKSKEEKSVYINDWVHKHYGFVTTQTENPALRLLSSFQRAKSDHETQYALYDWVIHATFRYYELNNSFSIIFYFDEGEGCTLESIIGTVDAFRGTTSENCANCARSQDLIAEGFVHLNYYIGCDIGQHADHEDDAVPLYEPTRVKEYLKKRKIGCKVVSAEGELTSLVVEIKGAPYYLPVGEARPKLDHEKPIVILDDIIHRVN
Mushroom tyrosinase (Agaricus bisporus), sequence (Q00024 whole entry, looked up): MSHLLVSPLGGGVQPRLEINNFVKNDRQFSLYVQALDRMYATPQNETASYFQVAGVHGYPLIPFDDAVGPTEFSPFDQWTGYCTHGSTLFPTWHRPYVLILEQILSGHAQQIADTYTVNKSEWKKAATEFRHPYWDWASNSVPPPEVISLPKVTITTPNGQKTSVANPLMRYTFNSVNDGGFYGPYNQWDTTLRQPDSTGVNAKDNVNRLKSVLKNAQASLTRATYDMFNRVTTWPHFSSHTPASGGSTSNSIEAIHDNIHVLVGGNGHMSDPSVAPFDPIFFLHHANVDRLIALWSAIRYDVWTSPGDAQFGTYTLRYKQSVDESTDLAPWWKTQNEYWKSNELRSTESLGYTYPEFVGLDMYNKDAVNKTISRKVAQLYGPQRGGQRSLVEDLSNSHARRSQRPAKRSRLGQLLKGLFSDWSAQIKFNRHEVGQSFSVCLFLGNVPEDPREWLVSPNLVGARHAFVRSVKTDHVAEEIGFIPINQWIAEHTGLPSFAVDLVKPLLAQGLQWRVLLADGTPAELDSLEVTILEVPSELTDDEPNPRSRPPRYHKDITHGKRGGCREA
Mushroom tyrosinase (Agaricus bisporus), sequence (O42713 whole entry, looked up): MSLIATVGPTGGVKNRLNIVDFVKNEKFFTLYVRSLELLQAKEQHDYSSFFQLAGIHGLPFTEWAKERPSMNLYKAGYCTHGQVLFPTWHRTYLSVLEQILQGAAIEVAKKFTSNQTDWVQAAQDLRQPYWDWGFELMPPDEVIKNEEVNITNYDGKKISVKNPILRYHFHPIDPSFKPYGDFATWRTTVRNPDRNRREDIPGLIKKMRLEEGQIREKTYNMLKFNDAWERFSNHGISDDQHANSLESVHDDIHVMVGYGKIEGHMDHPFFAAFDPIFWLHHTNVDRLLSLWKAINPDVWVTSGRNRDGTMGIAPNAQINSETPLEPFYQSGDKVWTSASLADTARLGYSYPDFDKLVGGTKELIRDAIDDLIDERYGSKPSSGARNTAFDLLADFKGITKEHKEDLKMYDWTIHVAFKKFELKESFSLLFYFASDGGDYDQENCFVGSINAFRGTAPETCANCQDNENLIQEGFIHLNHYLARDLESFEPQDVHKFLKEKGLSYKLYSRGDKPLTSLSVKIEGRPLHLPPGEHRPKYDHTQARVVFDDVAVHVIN

Compound	half-life [1] [h]	t1/2 [2] [h]	logD at 0.5 h [5]	half-life [6] [h]	IC50 [7] [µM]	IC50 [8] [µM]	IC50 [9] [µM]	half-life [10] [h]	other results
CCOc1nc(/N=N/N(C)C(=O)Oc2ccc(S(N)(=O)=O)cc2)nc2[nH]cnc12	0.4 to 58.3	–	–	–	–	–	–	–	–
CC(=O)c1ccc(/N=N/N(C)C(=O)CCc2ccc(OC(=O)CCc3ccc(O)cc3)cc2)cc1	–	0.0917	–	–	–	–	–	–	K [3]: 2.1 ×10⁻³ /s
CC(=O)Nc1ccc(OC(=O)N(C)/N=N/c2nc(OCc3ccccc3)c3nc[nH]c3n2)cc1	0.4 to 58.3	–	–	–	–	–	–	–	–
CN(/N=N/c1nc(OCc2ccccc2)c2nc[nH]c2n1)C(=O)c1ccc([N+](=O)[O-])cc1	22.1 to 58.3	–	–	–	–	–	–	–	–
CC(=O)c1ccc(/N=N/N(C)C(=O)CCCCc2ccc(O)cc2)cc1	–	0.0218	4	32.7	> 75	> 75	> 100	–	remaining at 192 h [4]: 100%
COC(=O)c1ccc(/N=N/N(C)C(=O)CCc2cccc(O)c2)cc1	–	–	3.42	7.8	> 75	> 75	75 to 150	94.7	K [11]: 9.1 ×10⁻⁶ /s; Retention time [12]: 12.5 min; metabolised [13]: 97.5%; Retention_time [14]: 12.3 min; t1/2 [15]: 21.17 h
CN(/N=N/c1ccc(Br)cc1)C(=O)CCCCc1ccc(O)cc1	–	0.108	4.32	162	45.8	52.2	> 75	–	remaining at 192 h [4]: 100%
COC(=O)c1ccc(/N=N/N(C)C(=O)CCc2ccc(OC(=O)CCc3ccc(O)cc3)cc2)cc1	–	0.107	–	–	–	–	–	–	K [3]: 1.8 ×10⁻³ /s
Mushroom tyrosinase (Agaricus bisporus) (from UniProt O42713+Q00024+C7FF04+C7FF05)	–	–	–	–	–	–	–	–	Km [16]: 280 µM; Km [17]: 250 µM; Km [18]: 1910 µM
CN(/N=N/c1ccc(C#N)cc1)C(=O)Cc1ccc(O)cc1	–	0.467 to 0.468	2.99	1.48	–	–	–	48	–
COC(=O)c1ccc(/N=N/N(C)C(=O)CCCCc2ccc(O)cc2)cc1	–	0.06	3.9	17.4	> 75	> 75	75 to 150	124	Kcat [19]: 0.013 s⁻¹; Vmax [19]: 0.018 µM/min; Km [20]: 1080 µM; Kcat/Km [21]: 13.88 M⁻¹ s⁻¹
CC(=O)N(C)/N=N/c1nc(OCc2ccccc2)c2nc[nH]c2n1	22.1 to 58.3	–	–	–	–	–	–	–	–
COC(=O)c1ccc(/N=N/N(C)C(=O)CCc2ccc(O)cc2)cc1	–	0.041 to 0.0417	3.23	7.3	> 75	> 75	75 to 150	102	metabolised [22]: 100%; K [3]: 4.7 ×10⁻³ /s
CN(/N=N/c1ccc(C#N)cc1)C(=O)CCCCc1ccc(O)cc1	–	0.07	4.3	11.8	> 75	> 75	75 to 150	82.5	Kcat [19]: 0.009 s⁻¹; Vmax [19]: 0.012 µM/min; Km [20]: 860 µM; Kcat/Km [21]: 1.39 M⁻¹ s⁻¹; Retention_time [14]: 9.8 min
Nc1ccccc1 [ANILINE]	–	–	–	–	–	–	–	–	Retention time [12]: 2.4 min; Retention_time [23]: 2 min; Retention time [14]: 2 to 2.1 min
CCOC(=O)N(C)/N=N/c1nc(OCc2ccccc2)c2nc[nH]c2n1	0.4 to 58.3	–	–	–	–	–	–	–	–
CN(/N=N/c1nc(OCc2ccccc2)c2nc[nH]c2n1)C(=O)c1cccnc1	22.1 to 58.3	–	–	–	–	–	–	–	–
CN(/N=N/c1ccc(C(N)=O)cc1)C(=O)CCCCc1ccc(O)cc1	–	0.0967	3.6	55.4	> 75	> 75	75 to 150	182	–
CCOc1nc(/N=N/N(C)C(=O)Oc2ccc([N+](=O)[O-])cc2)nc2[nH]cnc12	0.4 to 58.3	–	–	–	–	–	–	–	–
CN(/N=N/c1ccc(C#N)cc1)C(=O)CCc1cccc(O)c1	–	–	3.24	2.7	> 75	> 75	75 to 150	60.1	K [11]: 9.9 ×10⁻⁶ /s; Retention_time [23]: 8.8 min; metabolised [13]: 91.1%; t1/2 [15]: 19.45 h
CN(/N=N/c1ccc(C#N)cc1)C(=O)CCc1ccc(O)cc1	–	0.025	3.4	5.8	> 75	> 75	75 to 150	76	metabolised [22]: 100%; K [3]: 7.9 ×10⁻³ /s
CN(/N=N/c1nc(OCc2ccccc2)c2nc[nH]c2n1)C(=O)Oc1ccc(C(N)=O)cc1	0.4 to 58.3	–	–	–	–	–	–	–	–
Cc1ccc(/N=N/N(C)C(=O)CCCCc2ccc(O)cc2)cc1	–	0.0123	4	79.7	64.6	57.6	> 150	–	remaining at 192 h [4]: 100%
CN(/N=N/c1nc(OCc2ccccc2)c2nc[nH]c2n1)C(=O)c1ccccc1	22.1 to 58.3	–	–	–	–	–	–	–	–
CC(=O)c1ccc(/N=N/N(C)C(=O)CCc2ccc(O)cc2)cc1	–	0.06 to 0.061	3.05	14.6	> 75	> 75	75 to 150	123	metabolised [22]: 100%; K [3]: 3.2 ×10⁻³ /s
CN(/N=N/c1ccc(C(N)=O)cc1)C(=O)CCc1ccc(O)cc1	–	0.0767 to 0.077	2.8	48.5	> 75	> 75	75 to 150	118	metabolised [22]: 100%; K [3]: 2.5 ×10⁻³ /s
CCOc1nc(/N=N/N(C)C(=O)Oc2ccc(C(=O)OC)cc2)nc2[nH]cnc12	0.4 to 58.3	–	–	–	–	–	–	–	–
CCOC(=O)c1ccc(/N=N/N(C)C(=O)CCCCc2ccc(O)cc2)cc1	–	0.08	4.5	26.3	> 75	> 75	> 150	–	remaining at 192 h [4]: 100%
Cn1nnc2c(C(N)=O)ncn2c1=O [TEMOZOLOMIDE]	–	–	–	–	> 75	> 75	–	–	–
CN(/N=N/c1nc(OCc2ccccc2)c2nc[nH]c2n1)C(=O)Oc1ccccc1	0.4 to 58.3	–	–	–	–	–	–	–	–
